pKi: −log10 of the molar value.

This note sets out measurements from ChEMBL document CHEMBL5726156, “Pyridone or pyrimidone derivative, preparation method therefor and application thereof” (2019).

For the experiment, the target named is Coagulation factor XI (Homo sapiens, UniProt P03951). Description: In Vitro Inhibitory Effect of the Compounds of the Present Invention on the Enzymatic Activity of Blood-Coagulation Factor XIa: The following method was used to test the in vitro inhibitory effect of the compounds of the present invention on the activity of human blood-coagulation factor XIa, expressed by the Inhibition constant Ki.Solution preparation: reaction buffer: 0.03M HEPES acid, 0.145M NaCl, 0.005 M KCl, 0.1% PEG-8000, pH=7.5;HEPES 8.499 g, NaCl 8.47 g, KCl 0.3725, PEG 8000 1 g, plus ddH2O 800 ml; the pH was adjusted to 7.4 with HCl, and the volume was metered to 1 L.S2366 substrate stock solution (2 mM): a volume of substrate ([…]) was dissolved in 23 ml sterile deionized water, aliquoted, and stored at 4° C. in darkness.S2366 substrate working solution: the stock solution was diluted by 4 folds with the reaction buffer before use.FXIa working solution: 1 μl FXIa stock solution was added to 10 ml reaction buffer and thoroughly mixed before use.Method: 15 μl test sample working solution (15 μl DMSO for the control group) and 75 μl FXIa working solution were added to a 96-well plate, and incubated at room temperature for 15 min. Then 60 μl S2366 substrate working solution was added to initiate the reaction. […].
Sequence of Coagulation factor XI (P03951 19-387 limits assumed): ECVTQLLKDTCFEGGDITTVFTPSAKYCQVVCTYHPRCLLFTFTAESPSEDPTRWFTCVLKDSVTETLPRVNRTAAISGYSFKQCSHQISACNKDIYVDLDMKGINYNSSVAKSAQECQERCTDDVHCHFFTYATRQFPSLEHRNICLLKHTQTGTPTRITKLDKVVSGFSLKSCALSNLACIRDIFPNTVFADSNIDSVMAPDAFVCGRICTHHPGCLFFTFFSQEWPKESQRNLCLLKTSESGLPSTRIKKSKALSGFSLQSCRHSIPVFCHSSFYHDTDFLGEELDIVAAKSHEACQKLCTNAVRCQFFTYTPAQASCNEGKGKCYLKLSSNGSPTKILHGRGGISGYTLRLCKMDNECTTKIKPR
Sequence of Coagulation factor XI (P03951 388-625 limits assumed): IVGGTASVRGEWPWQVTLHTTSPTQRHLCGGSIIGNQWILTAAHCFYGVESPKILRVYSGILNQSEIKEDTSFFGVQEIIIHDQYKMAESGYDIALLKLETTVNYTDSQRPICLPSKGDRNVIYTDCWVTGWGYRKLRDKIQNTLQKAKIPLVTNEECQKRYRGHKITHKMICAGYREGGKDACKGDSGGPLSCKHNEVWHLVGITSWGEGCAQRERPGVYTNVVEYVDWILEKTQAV

Consider `COC(=O)Nc1ccc(NC(=O)C2CCc3cc(-c4cc(Cl)ccc4-n4cnnn4)cc(=O)n32)cc1` (stereo unspecified), for which the pKi was 6.46.

For orientation: pKi means −log10 of the Ki, conventionally taken in molar units.
